Measured values reported in patent publication US20250051409A1, “MODULATORS OF PHOSPHATIDYLSERlNE DECARBOXYLASE AND USE THEREOF” (THE NATIONAL INSTITUTE FOR BIOTECHNOLOGY IN THE NEGEV LTD., priority 2021, published 2025).
Read-outs that look alike come from different tables or passages of the source. Square brackets hold non-standard residues; d marks the D form. Ends that are not written are not given here. Peptide text beside a SMILES is read from it. Dmt = Cc1cc(O)cc(C)c1C[C@H](N)C(=O)O; Orn = NCCC[C@H](N)C(=O)O

What was measured:
[1] = tested on: A549 lung cancer cell; assay type: cell-based, human
Method: (B) Inhibition of PSD activity by the 2F3 (●) or 1C11 (◯) peptide. PSD activity was measured using the DSB-3 method. (C-E) Cell proliferation inhibition following incubation of A549 cells with the indicated mitochondria- or nuclear-targeted peptides for 24 h in a serum-free medium, and cell proliferation was assayed using the SRB method. Results are the means±SEM (n=3). (F) A549 cells were incubated for 90 min with 5 μM of the mitochondria- or nuclear targeted FITC-labelled peptides, immunostained with anti-SMAC antibodies and with DAPI and visualized by confocal microscope for subcellular localization. Arrows indicates nuclear (n=3). Scale bars represent 20
(A) A549 cells were incubated with the indicated concentration of 1C11-HTRA2-derived peptide targeted to the mitochondrion with the targeting sequence added to the N-terminus (N-Ter) or the C-terminus (C-Ter). (B) Mitochondrion targeted 1C11-HTRA2-derived peptide was modified by replacing the three amino acids in the C or the N-terminus of the peptide, or all amino acids in the peptide with the D-confirmation of the amino acid (underlined amino acids)). Following 24 h incubation in a serum-free medium, cell proliferation was assayed using the SRB method. (C) The concentration required for 50% inhibition of cell proliferation (IC50) is presented. Results are the means±SEM (n=3).
A549 (human lung adenocarcinoma epithelial cell), HEK-293T (human embryonic kidney), H1563/CRL-5875 (non-small cell lung cancer adenocarcinoma), H-358 (bronchioalveolar carcinoma), HaCaT (spontaneously transformed aneuploid immortal human skin keratinocyte), and WI-38 (fibroblast-like fetal lung cell) cell lines were purchased from the American Type Culture Collection (ATCC) (Manassas, VA), and were maintained as per ATCC instructions. Cells were maintained in ATCC recommended medium at 37° C. in an incubator with 5% CO2. Cell lines were routinely tested for Mycoplasma contamination. For SMAC overexpression, cells were seeded (200,000 cells/well) on 6-well culture plates and allowed to adhere overnight. These adhered cells were transfected with PVMV3.1-SMAC or empty vector using the JetPRIME transfection reagent (Illkirch, France), according to the manufacturers' instructions. Medium was changed 6 h post transfection, and cells were harvested 48 h post transfection.
Cells were seeded in 96-well cell culture plates (8,000/well) and allowed to grow for 48 h. After washing with PBS, cells were fixed with 10% trichloroacetic acid, and stained with SRB for 20 min. Excess SRB were removed, and cells were washed with 1% acetic acid. SRB extraction was done using 100 mM Tris-base, and absorbance at 510 nm was determined using an Infinite M1000 plate reader (Tecan, Mannedorf, Switzerland).

[2] = tested on: A549 cell xenografts; settings: tumors injected 3 times a week, final concentration 50 μM
Method: A549 cells were S.C. inoculated into female nude mice (7×10^6 cells/mouse). Tumors sizes were measured (using a digital caliper) and volumes were calculated. When tumors volumes reached 60-100 mm3 (day 12), the mice were divided into 2 groups and xenografts were untreated (●) or treated with HtrA2/Omi-derived D-amino acid peptide targeted to the mitochondria (D-HTRA2-M, o). The tumors were injected 3 times a week to a final concentration of 50 μM. […] Tumors of A549 cell xenografts were dissected, photographed (B) and weighted (C). […] Results represent the means±SEM (n=8), **P≤0.01, ***P≤0.001.
A549 cells were inoculated subcutaneously into female nude mice (7×10^6 cells/mouse). Tumors sizes were measured (using a digital caliper) and volumes were calculated. When tumors volumes reached 60-100 mm3 (day 12), the mice were divided into 2 groups (control and treatment) and in the treatment group xenografts were treated with HtrA2/Omi-derived D-amino acid peptide (SEQ ID NO:35) targeted to the mitochondria. The tumors were injected 3 times a week to a final concentration of 50 μM or the peptide was administered by intravenous injection 2 times a week to a final concentration of 20 mg/kg. Tumors of A549 cell xenografts were dissected, photographed and weighted.

[3] = tested on: different cell lines; settings: cited from earlier work

In the case of `CC[C@H](C)[C@H](NC(=O)[C@@H](NC(=O)[C@H](CC(N)=O)NC(=O)[C@H](C)NC(=O)[C@H](CCCCN)NC(=O)[C@H](CC(C)C)NC(=O)[C@H](CC(C)C)NC(=O)[C@H](CC(N)=O)NC(=O)[C@H](CC(=O)O)NC(=O)[C@H](CC(C)C)NC(=O)[C@@H](NC(=O)[C@@H]1CCCN1C(=O)[C@H](CC(C)C)NC(=O)[C@@H](NC(=O)[C@H](CS)NC(=O)[C@@H](NC(=O)[C@H](CC(C)C)NC(=O)[C@H](CCC(N)=O)NC(=O)[C@H](CCC(N)=O)NC(=O)[C@H](Cc1ccccc1)NC(=O)[C@H](Cc1ccccc1)NC(=O)[C@H](CCCN)NC(=O)[C@H](Cc1c(C)cc(O)cc1C)NC(=O)[C@H](N)CCCNC(=N)N)[C@@H](C)O)C(C)C)[C@@H](C)CC)C(C)C)C(=O)N[C@@H](CC(N)=O)C(=O)N[C@@H](CCCCN)C(=O)N[C@@H](CCC(N)=O)C(=O)N[C@@H](CCC(=O)O)C(=O)N[C@@H](Cc1c[nH]cn1)C(=O)O` [D-Arg-Dmt-Orn-Phe-1E14] (H-[dR][Dmt][Orn]FFQQLTCVLPILDNLLKANVINKQEH-OH; N-terminus and C-terminus assumed), the IC50 ([1]; 24 h) is reported as > 100 µM.
In the case of `Cc1cc(O)cc(C)c1C[C@H](NC(=O)[C@H](N)CCCNC(=N)N)C(=O)N[C@@H](CCCN)C(=O)N[C@@H](Cc1ccccc1)C(=O)N1CCC[C@H]1C(=O)N[C@@H](CC(N)=O)C(=O)N[C@@H](CCC(N)=O)C(=O)N[C@@H](CO)C(=O)N[C@@H](CO)C(=O)N[C@@H](CCCNC(=N)N)C(=O)N[C@@H](C)C(=O)N[C@@H](Cc1ccccc1)C(=O)N[C@@H](CCC(N)=O)C(=O)NCC(=O)N[C@H](C(=O)N[C@@H](CC(=O)O)C(=O)N[C@@H](Cc1c[nH]cn1)C(=O)N[C@@H](CO)C(=O)N[C@@H](CO)C(=O)N[C@@H](CC(=O)O)C(=O)N[C@@H](CC(C)C)C(=O)N[C@@H](C)C(=O)N[C@@H](Cc1ccccc1)C(=O)N[C@@H](CC(=O)O)C(=O)N[C@@H](Cc1ccccc1)C(=O)N[C@@H](CC(C)C)C(=O)N[C@@H](CO)C(=O)N[C@@H](CCC(N)=O)C(=O)N[C@@H](CCC(N)=O)C(=O)O)[C@@H](C)O` [D-Arg-Dmt-Orn-Phe-2I8] (H-[dR][Dmt][Orn]FPNQSSRAFQGTDHSSDLAFDFLSQQ-OH; N-terminus and C-terminus assumed), the IC50 ([1]; 24 h) is reported as 66.8 ± 4.7 µM.
For `CC[C@H](C)[C@H](NC(=O)[C@@H]1CCCN1C(=O)[C@H](CO)NC(=O)[C@H](CO)NC(=O)[C@@H](NC(=O)[C@H](CO)NC(=O)[C@H](CC(C)C)NC(=O)[C@H](C)NC(=O)[C@H](Cc1ccccc1)NC(=O)[C@H](CCCN)NC(=O)[C@H](Cc1c(C)cc(O)cc1C)NC(=O)[C@H](N)CCCNC(=N)N)[C@@H](C)O)C(=O)N1CCC[C@H]1C(=O)N[C@@H](CO)C(=O)N[C@H](C(=O)N1CCC[C@H]1C(=O)N[C@@H](CCC(N)=O)C(=O)N[C@@H](CO)C(=O)N[C@@H](CCC(N)=O)C(=O)N[C@@H](C)C(=O)N[C@@H](CCC(N)=O)C(=O)N1CCC[C@H]1C(=O)N[C@@H](CCC(N)=O)C(=O)N[C@H](C(=O)NCC(=O)N[C@@H](CO)C(=O)NCC(=O)N[C@@H](C)C(=O)N[C@@H](CO)C(=O)O)[C@@H](C)O)C(C)C` [H-(D-Arg)-Dmt-Orn-Phe-2F3] (H-[dR][Dmt][Orn]FALSTSSPIPSVPQSQAQPQTGSGAS-OH; C-terminus assumed), the IC50 ([1]; 24 h) was > 100 µM.
`CC(C)C[C@H](NC(=O)[C@H](CCCNC(=N)N)NC(=O)[C@H](C)NC(=O)[C@H](Cc1c[nH]c2ccccc12)NC(=O)[C@H](CC(C)C)NC(=O)[C@H](CO)NC(=O)[C@@H]1CCCN1C(=O)[C@@H](NC(=O)CNC(=O)[C@H](Cc1ccc(O)cc1)NC(=O)[C@@H](NC(=O)[C@@H](NC(=O)[C@H](CCCNC(=N)N)NC(=O)[C@H](C)NC(=O)[C@H](CCCNC(=N)N)NC(=O)[C@@H]1CCCN1C(=O)[C@H](CC(=O)O)NC(=O)[C@H](CO)NC(=O)[C@@H](NC(=O)CNC(=O)[C@H](CO)NC(=O)[C@@H](NC(=O)[C@H](CC(C)C)NC(=O)[C@H](CC(C)C)NC(=O)[C@H](C)NC(=O)[C@H](CCCCN)NC(=O)[C@H](CCCNC(=N)N)NC(=O)[C@@H](CCCNC(=N)N)NC(=O)[C@@H](N)CCCNC(=N)N)[C@@H](C)O)[C@@H](C)O)C(C)C)[C@@H](C)O)[C@@H](C)O)C(=O)O` [R-{D-Arg}-RK-1C11] (H-R[dR]RKALLTSGTSDPRARVTYGTPSLWARL-OH; N-terminus and C-terminus assumed) gave an IC50 ([1]; 24 h) of 66.5 ± 3.9 µM.
In the case of `CC[C@H](C)[C@H](NC(=O)[C@@H](NC(=O)[C@H](CC(N)=O)NC(=O)[C@H](C)NC(=O)[C@H](CCCCN)NC(=O)[C@H](CC(C)C)NC(=O)[C@H](CC(C)C)NC(=O)[C@H](CC(N)=O)NC(=O)[C@H](CC(=O)O)NC(=O)[C@H](CC(C)C)NC(=O)[C@@H](NC(=O)[C@@H]1CCCN1C(=O)[C@H](CC(C)C)NC(=O)[C@@H](NC(=O)[C@H](CS)NC(=O)[C@@H](NC(=O)[C@H](CC(C)C)NC(=O)[C@H](CCC(N)=O)NC(=O)[C@H](CCC(N)=O)NC(=O)[C@H](Cc1ccccc1)NC(=O)[C@H](CCCCN)NC(=O)[C@H](CCCNC(=N)N)NC(=O)[C@@H](CCCNC(=N)N)NC(=O)[C@@H](N)CCCNC(=N)N)[C@@H](C)O)C(C)C)[C@@H](C)CC)C(C)C)C(=O)N[C@@H](CC(N)=O)C(=O)N[C@@H](CCCCN)C(=O)N[C@@H](CCC(N)=O)C(=O)N[C@@H](CCC(=O)O)C(=O)N[C@@H](Cc1c[nH]cn1)C(=O)O` [R-{D-Arg}-RK-1E14] (H-R[dR]RKFQQLTCVLPILDNLLKANVINKQEH-OH; N-terminus and C-terminus assumed), the IC50 ([1]; 24 h) is reported as > 100 µM.
`CC[C@H](C)[C@H](NC(=O)[C@@H]1CCCN1C(=O)[C@H](CO)NC(=O)[C@H](CO)NC(=O)[C@@H](NC(=O)[C@H](CO)NC(=O)[C@H](CC(C)C)NC(=O)[C@H](C)NC(=O)[C@H](CCCCN)NC(=O)[C@H](CCCNC(=N)N)NC(=O)[C@@H](CCCNC(=N)N)NC(=O)[C@@H](N)CCCNC(=N)N)[C@@H](C)O)C(=O)N1CCC[C@H]1C(=O)N[C@@H](CO)C(=O)N[C@H](C(=O)N1CCC[C@H]1C(=O)N[C@@H](CCC(N)=O)C(=O)N[C@@H](CO)C(=O)N[C@@H](CCC(N)=O)C(=O)N[C@@H](C)C(=O)N[C@@H](CCC(N)=O)C(=O)N1CCC[C@H]1C(=O)N[C@@H](CCC(N)=O)C(=O)N[C@H](C(=O)NCC(=O)N[C@@H](CO)C(=O)NCC(=O)N[C@@H](C)C(=O)N[C@@H](CO)C(=O)O)[C@@H](C)O)C(C)C` [R-{D-Arg}-RK-2F3] (H-R[dR]RKALSTSSPIPSVPQSQAQPQTGSGAS-OH; N-terminus and C-terminus assumed) gave an IC50 ([1]; 24 h) of 28.9 ± 5.2 µM.
In the case of `CC(C)C[C@H](NC(=O)[C@H](CC(=O)O)NC(=O)[C@H](CO)NC(=O)[C@H](CO)NC(=O)[C@H](Cc1c[nH]cn1)NC(=O)[C@H](CC(=O)O)NC(=O)[C@@H](NC(=O)CNC(=O)[C@H](CCC(N)=O)NC(=O)[C@H](Cc1ccccc1)NC(=O)[C@H](C)NC(=O)[C@H](CCCNC(=N)N)NC(=O)[C@H](CO)NC(=O)[C@H](CO)NC(=O)[C@H](CCC(N)=O)NC(=O)[C@H](CC(N)=O)NC(=O)[C@@H]1CCCN1C(=O)[C@H](CCCCN)NC(=O)[C@H](CCCNC(=N)N)NC(=O)[C@@H](CCCNC(=N)N)NC(=O)[C@@H](N)CCCNC(=N)N)[C@@H](C)O)C(=O)N[C@@H](C)C(=O)N[C@@H](Cc1ccccc1)C(=O)N[C@@H](CC(=O)O)C(=O)N[C@@H](Cc1ccccc1)C(=O)N[C@@H](CC(C)C)C(=O)N[C@@H](CO)C(=O)N[C@@H](CCC(N)=O)C(=O)N[C@@H](CCC(N)=O)C(=O)O` [R-{D-Arg}-RK-2I8] (H-R[dR]RKPNQSSRAFQGTDHSSDLAFDFLSQQ-OH; N-terminus and C-terminus assumed), the IC50 ([1]; 24 h) is reported as > 100 µM.
Compound ALSTSSPIPSVPQSQAQPQTGSGAS [2F3] has an IC50 [1] of 19.6 µM.
In the case of FQQLTCVLPILDNLLKANVINKQEH [1E14], the “effect on cell growth” value ([1]; targeted to the mitochondria or the nucleus) is reported as “no effect on cell growth”.
In the case of “SEQ ID NO:35: HtrA2/Omi-derived D-amino acid peptide targeted to the mitochondria ([dA][dL][dL][dT][dS]G[dT][dS][dD][dP][dR][dA][dR][dV][dT][dY]G[dT][dP][dS][dL][dW][dA][dR][dL])”, the “decrease in tumor weight” value [2] is reported as “up to 80%” and the “increase of tumor volume” value ([2]; after 28 days) is reported as “about 4 fold”.
In the case of [dR][Dmt][Orn]F [mtCPP-1], the induction of apoptosis [3] is listed as “did not induce apoptosis” and the “toxicity in cell lines” value [3] is listed as “no toxicity”.
